Source: paper PMC3402541, “Guanidylation and Tail Effects in Cationic Antimicrobial Lipopeptoids” (PLoS ONE, 2012)
In brackets after ≈: the same amount, converted by molar mass.

How the values were obtained:
E.coli CAN-ICU 63074 = type: cell-based, Escherichia coli; conditions: CAN-ICU 63074, 24 h
Description: (§1) Antimicrobial activity of the purified lipopeptoids was determined without replication against a panel of clinically relevant and standard reference bacterial strains according to CLSI macrobroth standards. Stock solutions at 512 µg/mL were prepared in water, with DMSO as needed, and testing was performed in glass test tubes using Muller-Hinton broth and bacteria adjusted to 5 × 10^5 CFU/mL. Bacteria were incubated with the lipopeptoid of interest for 24 hr at 37°C prior to reading.
(§2) The bacteria Staphylococcus aureus ATCC 29213, methicillin-resistant S. aureus ATCC 33592, Staphylococcus epidermidis ATCC 14990, Enterococcus faecalis ATCC 29212, E. faecium ATCC 27270, Streptococcus pneumoniae ATCC 49619, Escherichia coli ATCC 25922, Pseudomonas aeruginosa ATCC 27853, and Klebsiella pneumoniae ATCC 13883 were acquired from the American Type Culture Collection (ATCC) and used as quality controls. The clinical strains methicillin-resistant S. epidermidis (MRSE) CAN-ICU 61589, E. coli CAN-ICU 61714, E. coli CAN-ICU 63074, P. aeruginosa CAN-ICU 62308, Stenotrophomonas maltophilia CAN-ICU 62584, Acinetobacter baumannii CAN-ICU 63169 were obtained from hospitals across Canada as part of the CAN-ICU studies, while methicillin-susceptible S. epidermidis (MSSE) 81388 was obtained from the 2008 CANWARD study.
(§3) After subculturing the relevant bacteria twice from frozen stock, in vitro activities of the antimicrobials were determined by macrobroth dilution methodology in accordance with the Clinical and Laboratory Standards Institute (CLSI) guidelines (3). The MICs were determined using glass test tubes (2 mL/tube) containing doubling antimicrobial dilutions of cation adjusted Mueller-Hinton broth inoculated to achieve a final concentration of approximately 5 x 10^5 CFU/mL, incubated in ambient air for 24 hr prior to reading. Colony counts were performed periodically to confirm inocula. The ATCC organisms […] ATCC 49619, Staphylococcus aureus ATCC 29213, Enterococcus faecalis ATCC 29212, Escherichia coli ATCC 25922, and Pseudomonas aeruginosa ATCC 27853 were used as quality control and to allow easy comparison to previously tested antimicrobials. Each test in this series was performed without replication. In our experience with cationic amphiphiles the results are accurate to within a single doubling.

E.coli ATCC 25922 = type: cell-based, Escherichia coli; conditions: ATCC 25922, 24 h
Description: as §1, §2, §3

E.coli CAN-ICU 61714 = type: cell-based, Escherichia coli; conditions: CAN-ICU 61714, 24 h
Description: as §1, §2, §3

S.pneumoniae ATCC 49619 = type: cell-based, Streptococcus pneumoniae; conditions: ATCC 49619, 24 h
Description: as §1, §2, §3

S.aureus ATCC 29213 = type: cell-based, Staphylococcus aureus; conditions: ATCC 29213, 24 h
Description: as §1, §2, §3

[1] = test system: S. maltophilia CAN-ICU 62584; type: cell-based, Stenotrophomonas maltophilia; conditions: CAN-ICU 62584, 24 h
Description: as §1, §2, §3

ovine erythrocytes = assay: Haemolytic assay; type: cell-based, sheep; conditions: ovine erythrocytes in Tris buffered saline, 30 minutes, absorbance of supernatant at 540 nm
Description: Mammalian cell toxicity was determined by measuring lysis of ovine erythrocytes, a standard model for human cell toxicity. Cells were prewashed with Tris buffered saline and then incubated with a variety of lipopeptoid concentrations for 30 minutes. Following centrifugation, lysis was evaluated by testing the absorbance of the solution at 540 nm, with 0.5% NH4OH used as a positive control.
Toxicity to mammalian cells was determined using a sheep red blood cell (erythrocyte) haemolytic assay (4). Erythrocytes were washed and resuspended in Tris buffered saline prior to use, at a concentration of 1.46 - 4.5 x 10^9 cells/mL (on average 3.08 x 10^9 cells/mL). The cell suspension was diluted with varying concentrations of antimicrobials, from 50 μg/mL to 1 mg/mL and incubated for thirty minutes (final erythrocyte concentration 4.08 x 10^8 cells/mL). The samples were centrifuged following treatment and the absorbance of the supernatant was measured at 540 nm. A solution of 0.5% […] was used as a positive control, with normal buffered solution as the negative control. The toxicity was assessed as a function of percent haemolysis.

E. faecium ATCC 27270 = type: cell-based; conditions: ATCC 27270, 24 h
Description: as §1, §2, §3

E. faecalis ATCC 29212 = type: cell-based, Enterococcus faecalis; conditions: ATCC 29212, 24 h
Description: as §1, §2, §3

P.aeruginosa ATCC 27853 = type: cell-based, Pseudomonas aeruginosa; conditions: ATCC 27853, 24 h
Description: as §1, §2, §3

[2] = test system: P.aeruginosa CAN-ICU 62308; type: cell-based, Pseudomonas aeruginosa; conditions: CAN-ICU 62308, 24 h
Description: as §1, §2, §3

K.pneumoniae ATCC 13883 = type: cell-based, Klebsiella pneumoniae; conditions: ATCC 13883, 24 h
Description: as §1, §2, §3

MRSA ATCC 33592 = type: cell-based, methicillin-resistant S. aureus; conditions: ATCC 33592, 24 h
Description: as §1, §2, §3

MRSE CAN-ICU 61589 = type: cell-based, methicillin-resistant S. epidermidis; conditions: CAN-ICU 61589, 24 h
Description: as §1, §2, §3

[3] = test system: A. baumannii CAN-ICU 63169; type: cell-based, Acinetobacter baumannii; conditions: CAN-ICU 63169, 24 h
Description: as §1, §2, §3

MSSE 81388 CANWARD 2008 = type: cell-based, methicillin-susceptible S. epidermidis; conditions: 24 h
Description: as §1, §2, §3

MIC E.coli (E.coli CAN-ICU 63074)	MIC E.coli in the presence of 4% bovine serum albumin (E.coli CAN-ICU 63074)	MIC E.coli (E.coli ATCC 25922)	MIC E.coli in the presence of 4% bovine serum albumin (E.coli ATCC 25922)	MIC E.coli (E.coli CAN-ICU 61714)	MIC E.coli in the presence of 4% bovine serum albumin (E.coli CAN-ICU 61714)	MIC S.pneumoniae (S.pneumoniae ATCC 49619)	MIC S.pneumoniae in the presence of 4% bovine serum albumin (S.pneumoniae ATCC 49619)	MIC S.aureus (S.aureus ATCC 29213)	MIC S.aureus in the presence of 4% bovine serum albumin (S.aureus ATCC 29213)	MIC S. maltophilia [1]	MIC S. maltophilia in the presence of 4% bovine serum albumin [1]	MIC E. faecium (E. faecium ATCC 27270)	MIC E. faecium in the presence of 4% bovine serum albumin (E. faecium ATCC 27270)	MIC E. faecalis (E. faecalis ATCC 29212)	MIC E. faecalis in the presence of 4% bovine serum albumin (E. faecalis ATCC 29212)	MIC P.aeruginosa (P.aeruginosa ATCC 27853)	MIC P.aeruginosa in the presence of 4% bovine serum albumin (P.aeruginosa ATCC 27853)	MIC P.aeruginosa [2]	MIC P.aeruginosa in the presence of 4% bovine serum albumin [2]	SMILES	further results
512 µg/mL (≈ 879 µM)	>512 µg/mL	512 µg/mL (≈ 879 µM)	512 µg/mL	512 µg/mL (≈ 879 µM)	>512 µg/mL	512 µg/mL (≈ 879 µM)	>512 µg/mL	128 µg/mL (≈ 220 µM)	512 µg/mL	>512 µg/mL	>512 µg/mL	256 µg/mL (≈ 439 µM)	512 µg/mL	256 µg/mL (≈ 439 µM)	>512 µg/mL	>512 µg/mL	>512 µg/mL	512 µg/mL (≈ 879 µM)	512 µg/mL	CCCCCCCCCCC(=O)N(CCCCNC(=N)N)CC(=O)NCC(=O)N(CCCCNC(=N)N)CC(N)=O [C11-NhargGNharg]	Percent haemolysis at 100µg/mL of compound (ovine erythrocytes): 1.49%; MIC K.pneumoniae (K.pneumoniae ATCC 13883): 512 µg/mL (≈ 879 µM); MIC K.pneumoniae in the presence of 4% bovine serum albumin (K.pneumoniae ATCC 13883): 512 µg/mL; MIC MRSA (MRSA ATCC 33592): 128 µg/mL (≈ 220 µM); MIC MRSA in the presence of 4% bovine serum albumin (MRSA ATCC 33592): 512 µg/mL; MIC MRSE (MRSE CAN-ICU 61589): 128 µg/mL (≈ 220 µM); MIC MRSE in the presence of 4% bovine serum albumin (MRSE CAN-ICU 61589): 512 µg/mL; MIC A. baumannii [3]: 512 µg/mL (≈ 879 µM); MIC A. baumannii in the presence of 4% bovine serum albumin [3]: >512 µg/mL; MIC MSSE (MSSE 81388 CANWARD 2008): 128 µg/mL (≈ 220 µM); MIC MSSE in the presence of 4% bovine serum albumin (MSSE 81388 CANWARD 2008): 256 µg/mL
>512 µg/mL	>512 µg/mL	>512 µg/mL	>512 µg/mL	>512 µg/mL	>512 µg/mL	512 µg/mL (≈ 736 µM)	>512 µg/mL	128 µg/mL (≈ 184 µM)	512 µg/mL	>512 µg/mL	>512 µg/mL	256 µg/mL (≈ 368 µM)	512 µg/mL	512 µg/mL (≈ 736 µM)	>512 µg/mL	>512 µg/mL	>512 µg/mL	>512 µg/mL	>512 µg/mL	CCCCCCCCCCC(=O)N(CCCCNC(=N)N)CC(=O)N(CCCCNC(=N)N)CC(=O)N(CCCCNC(=N)N)CC(N)=O [C11-NhargNhargNharg]	MIC K.pneumoniae (K.pneumoniae ATCC 13883): >512 µg/mL; MIC K.pneumoniae in the presence of 4% bovine serum albumin (K.pneumoniae ATCC 13883): >512 µg/mL; MIC MRSA (MRSA ATCC 33592): 128 µg/mL (≈ 184 µM); MIC MRSA in the presence of 4% bovine serum albumin (MRSA ATCC 33592): 512 µg/mL; MIC MRSE (MRSE CAN-ICU 61589): 256 µg/mL (≈ 368 µM); MIC MRSE in the presence of 4% bovine serum albumin (MRSE CAN-ICU 61589): 512 µg/mL; MIC A. baumannii [3]: >512 µg/mL; MIC A. baumannii in the presence of 4% bovine serum albumin [3]: >512 µg/mL; MIC MSSE (MSSE 81388 CANWARD 2008): 64 µg/mL (≈ 92 µM); MIC MSSE in the presence of 4% bovine serum albumin (MSSE 81388 CANWARD 2008): 512 µg/mL
64 µg/mL (≈ 102 µM)	>512 µg/mL	32 µg/mL (≈ 51.2 µM)	512 µg/mL	64 µg/mL (≈ 102 µM)	>512 µg/mL	128 µg/mL (≈ 205 µM)	512 µg/mL	16 µg/mL (≈ 25.6 µM)	512 µg/mL	256 µg/mL (≈ 410 µM)	>512 µg/mL	32 µg/mL (≈ 51.2 µM)	512 µg/mL	32 µg/mL (≈ 51.2 µM)	512 µg/mL	64 µg/mL (≈ 102 µM)	>512 µg/mL	128 µg/mL (≈ 205 µM)	>512 µg/mL	CCCCCCCCCCCCCC(=O)N(CCCCNC(=N)N)CC(=O)NCC(=O)N(CCCCNC(=N)N)CC(N)=O [C14-NhargGNharg]	Percent haemolysis at 100µg/mL of compound (ovine erythrocytes): 55.44%; MIC K.pneumoniae (K.pneumoniae ATCC 13883): 256 µg/mL (≈ 410 µM); MIC K.pneumoniae in the presence of 4% bovine serum albumin (K.pneumoniae ATCC 13883): >512 µg/mL; MIC MRSA (MRSA ATCC 33592): 16 µg/mL (≈ 25.6 µM); MIC MRSA in the presence of 4% bovine serum albumin (MRSA ATCC 33592): 512 µg/mL; MIC MRSE (MRSE CAN-ICU 61589): 16 µg/mL (≈ 25.6 µM); MIC MRSE in the presence of 4% bovine serum albumin (MRSE CAN-ICU 61589): 512 µg/mL; MIC A. baumannii [3]: 512 µg/mL (≈ 819 µM); MIC A. baumannii in the presence of 4% bovine serum albumin [3]: >512 µg/mL; MIC MSSE (MSSE 81388 CANWARD 2008): 8 µg/mL (≈ 12.8 µM); MIC MSSE in the presence of 4% bovine serum albumin (MSSE 81388 CANWARD 2008): 512 µg/mL
64 µg/mL (≈ 86.7 µM)	512 µg/mL	64 µg/mL (≈ 86.7 µM)	512 µg/mL	64 µg/mL (≈ 86.7 µM)	512 µg/mL	64 µg/mL (≈ 86.7 µM)	256 µg/mL	16 µg/mL (≈ 21.7 µM)	256 µg/mL	256 µg/mL (≈ 347 µM)	>512 µg/mL	16 µg/mL (≈ 21.7 µM)	256 µg/mL	32 µg/mL (≈ 43.4 µM)	512 µg/mL	256 µg/mL (≈ 347 µM)	>512 µg/mL	128 µg/mL (≈ 173 µM)	512 µg/mL	CCCCCCCCCCCCCC(=O)N(CCCCNC(=N)N)CC(=O)N(CCCCNC(=N)N)CC(=O)N(CCCCNC(=N)N)CC(N)=O [C14-NhargNhargNharg]	Percent haemolysis at 100µg/mL of compound (ovine erythrocytes): 20.34%; MIC K.pneumoniae (K.pneumoniae ATCC 13883): 256 µg/mL (≈ 347 µM); MIC K.pneumoniae in the presence of 4% bovine serum albumin (K.pneumoniae ATCC 13883): 512 µg/mL; MIC MRSA (MRSA ATCC 33592): 16 µg/mL (≈ 21.7 µM); MIC MRSA in the presence of 4% bovine serum albumin (MRSA ATCC 33592): 512 µg/mL; MIC MRSE (MRSE CAN-ICU 61589): 16 µg/mL (≈ 21.7 µM); MIC MRSE in the presence of 4% bovine serum albumin (MRSE CAN-ICU 61589): 256 µg/mL; MIC A. baumannii [3]: 256 µg/mL (≈ 347 µM); MIC A. baumannii in the presence of 4% bovine serum albumin [3]: >512 µg/mL; MIC MSSE (MSSE 81388 CANWARD 2008): 8 µg/mL (≈ 10.8 µM); MIC MSSE in the presence of 4% bovine serum albumin (MSSE 81388 CANWARD 2008): 512 µg/mL
